# In EP0450065A1, “ANTIVIRAL AGENT” (priority 1988, dated 1990):
# Several values for one entry are separate records, joined by “and”; a condition that tells them apart may be missing. Equal values may be shown once. Read-outs that look alike come from different tables or passages of the source.
# Key:
# [1] = system: herpes simplex virus type 2 (169 strain); test: Control of CPE (cytopathic effect) manifestation in vero cells; type: cell-based; set-up: key to Cytopathic effect [CPE] (3days) Average / Cytopathic effect [CPE] (5days) Average / Cytopathic effect [CPE] (6days) Average: CPE score 0-3: 3 = ≥75% cells, 2 = 50%, 1 = 25%, 0 = none; key to Cytopathic effect [CPE] (3days) △CPE / Cytopathic effect [CPE] (5days) △CPE / Cytopathic effect [CPE] (6days) △CPE: difference of mean CPE score (0-3 scale) from untreated control; settings: HSV-2 (169); for Cytopathic effect [CPE] (3days) △CPE / Cytopathic effect [CPE] (5days) △CPE / Cytopathic effect [CPE] (6days) △CPE: difference from control
# Protocol: Vero cells cultured and grown in a monolayer on microplates to test for cytopathic effect due to viral infection, with solutions of Compound A diluted to varying ratios and solutions of virus diluted to varying ratios added severally thereto in a volume of 0.1 ml, were cultured under the conditions of 5% CO₂ and 37°C and were examined for CPE manifestation under a microscope. The observation was continued for five to six days.
# The degree of CPE brought about by viral infection was rated on the five-point scale, wherein 3 stands for CPE observed on not less than 75% of cultured cells, 2 for CPE observed on 50% of cultured cells, 1 for CPE observed on 25% of cultured cells, 0.5 for occurrence of one to two extremely minute DPE spots, and 0 for perfect absence of recognizable CPE. The CPE scores obtained at the four holes in each microplate were averaged and the difference of the average from the average obtained in the control (omitting the treatment with a chemical) was reported as ΔCPE.
# In vitro antiviral activity of Compound A against herpes simplex virus type 2 (169 strain) The test was carried out by following the procedure of Example 3.
# [2] = system: vero cells; settings: african green monkey
# Protocol: Compound A and Compound B were severally dissolved in distilled water in a concentration of 5 mg/ml, to prepare master solutions. Each of the master solutions was suitably diluted with an Eagle's MEM culture medium containing 10% fetal bovine serum. A 0.2-ml portion of the resultant dilution product was placed on vero cells cultured in advance on a microplate and grown in a monolayer, cultured further thereon at 37°C for three to five days. Samples taken severally after three days'and five days'culture were placed under a microscope and tested for cytopathogenic effect brought about by a chemical agent.
# [3] = system: herpes simplex virus type 1 (HF strain); test: 50% Tissue culture infective dose (TCID50), Read-Munch method, negative logarithm of virus dilution; type: cell-based
# Protocol: In vitro antiviral activity of Compound A against herpes simplex virus type 1 (HF strain) Compound A was tested for antiviral effect by the following two methods.
# The amount of virus infecting 50% of tissues (TCID₅₀) was determined by the Read-Munch method and expressed in negative logarithm of the maximum radio of dilution of virus. The difference of the amount thus determined from the amount found in the control (omitting the treatment with a chemical) was reported as ΔTCID₅₀. A sample whose ΔCPE's found on the last day of observation and on each of the days spent for the observation exceeded 1.0 was evaluated as effective.
# In vitro antiviral effect of Compound A against herpes simplex virus type 1 (HF strain) The test was carried out by following the procedure of Example 3.
# [4] = system: vero cells; settings: control ratio on propagation of vero cells, 72hr
# Protocol: Samples of the control group contained 0.1 ml of a culture solution (an Eagle's MEM culture medium containing 10% fetal bovine serum).
# The test was conducted by using three culture tubes per group, culturing the cells in the tubes at 37°C for three days, and taking count of live cells by the dye-exclusion method.
# [5] = molecular target: thymidine kinase [TK(v)] (Human herpesvirus 1, UniProt P0DTH5); settings: viral versus cellular thymidine kinase; cited from earlier work
# [6] = 5 μg/ml, HSV-1 (HF), Example 3, difference from control
# [7] = 10 μg/ml, HSV-1 (HF), Example 3
# [8] = 10 μg/ml, HSV-1 (HF), Example 3, difference from control
# [9] = 20 μg/ml, HSV-1 (HF), Example 3
# [10] = 20 μg/ml, HSV-1 (HF), Example 3, difference from control
# [11] = 50 μg/ml, HSV-1 (HF), Example 3
# [12] = 50 μg/ml, HSV-1 (HF), Example 3, difference from control
# [13] = 100 μg/ml, HSV-1 (HF strain), Example 5
# [14] = 100 μg/ml, HSV-1 (HF strain), Example 5, difference from control
# [15] = 100 μg/ml, HSV-1 (HF), Example 3
# [16] = 100 μg/ml, HSV-1 (HF), Example 3, difference from control
# [17] = 200 μg/ml, HSV-1 (HF strain), Example 5
# [18] = 200 μg/ml, HSV-1 (HF strain), Example 5, difference from control
# thymidine kinase [TK(v)], sequence (P0DTH5 whole entry): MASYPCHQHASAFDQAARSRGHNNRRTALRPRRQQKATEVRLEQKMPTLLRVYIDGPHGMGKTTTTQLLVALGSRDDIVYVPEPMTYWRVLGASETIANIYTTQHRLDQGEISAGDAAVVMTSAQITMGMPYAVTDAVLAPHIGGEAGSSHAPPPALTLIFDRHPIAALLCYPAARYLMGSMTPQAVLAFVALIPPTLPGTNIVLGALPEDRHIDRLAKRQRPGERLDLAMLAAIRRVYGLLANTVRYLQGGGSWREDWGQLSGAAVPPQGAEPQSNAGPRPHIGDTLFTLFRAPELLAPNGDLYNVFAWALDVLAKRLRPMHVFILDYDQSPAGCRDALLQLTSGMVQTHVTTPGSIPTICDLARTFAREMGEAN
compound,measurement,setting,value
K₅BW₁₂O₄₀.15H₂O [Compound A],Cytopathic effect [CPE] (3days) Average,"[1]; 5 μg/ml, Example 4",1.0
same,Cytopathic effect [CPE] (5days) Average,"[1]; 5 μg/ml, Example 4",2.5
same,Cytopathic effect [CPE] (3days) △CPE,"[1]; 5 μg/ml, Example 4",0.5
same,Cytopathic effect [CPE] (5days) △CPE,"[1]; 5 μg/ml, Example 4",0.5
same,Cytopathic effect [CPE] (3days) Average,"[1]; 10 μg/ml, Example 4",1.0
same,Cytopathic effect [CPE] (5days) Average,"[1]; 10 μg/ml, Example 4",2.0
same,Cytopathic effect [CPE] (3days) △CPE,"[1]; 10 μg/ml, Example 4",0.5
same,Cytopathic effect [CPE] (5days) △CPE,"[1]; 10 μg/ml, Example 4",1.0
same,Cytopathic effect [CPE] (3days) Average,"[1]; 20 μg/ml, Example 4",1.0
same,Cytopathic effect [CPE] (5days) Average,"[1]; 20 μg/ml, Example 4",1.25
same,Cytopathic effect [CPE] (3days) △CPE,"[1]; 20 μg/ml, Example 4",0.5
same,Cytopathic effect [CPE] (5days) △CPE,"[1]; 20 μg/ml, Example 4",1.75
same,Cytopathic effect [CPE] (3days) Average,"[1]; 50 μg/ml, Example 4",0.5
same,Cytopathic effect [CPE] (5days) Average,"[1]; 50 μg/ml, Example 4",0.5
same,Cytopathic effect [CPE] (3days) △CPE,"[1]; 50 μg/ml, Example 4",1.0
same,Cytopathic effect [CPE] (5days) △CPE,"[1]; 50 μg/ml, Example 4",2.5
same,Cytopathic effect [CPE] (3days) Average,"[1]; 100 μg/ml, Example 4",0
same,Cytopathic effect [CPE] (5days) Average,"[1]; 100 μg/ml, Example 4",0
same,Cytopathic effect [CPE] (3days) △CPE,"[1]; 100 μg/ml, Example 4",1.5
same,Cytopathic effect [CPE] (5days) △CPE,"[1]; 100 μg/ml, Example 4",3.05
same,Cytopathic effect [CPE] (3days) Average,"[1]; 100 μg/ml, Example 6",0
same,Cytopathic effect [CPE] (6days) Average,"[1]; 100 μg/ml, Example 6",0
same,Cytopathic effect [CPE] (3days) △CPE,"[1]; 100 μg/ml, Example 6",2.5
same,Cytopathic effect [CPE] (6days) △CPE,"[1]; 100 μg/ml, Example 6",3.0
same,Cytopathic effect [CPE] (3days) Average,"[1]; 200 μg/ml, Example 6",0
same,Cytopathic effect [CPE] (6days) Average,"[1]; 200 μg/ml, Example 6",0
same,Cytopathic effect [CPE] (3days) △CPE,"[1]; 200 μg/ml, Example 6",2.5
same,Cytopathic effect [CPE] (6days) △CPE,"[1]; 200 μg/ml, Example 6",3.0
same,maximum nontoxic doses (MNTD),[2],> 200 µg/mL
same,Cellular toxity (3 days) Maximum nontoxic does,[2]; 72 h,>200 µg/mL
same,Cellular toxity (5 days) Maximum nontoxic does,[2]; 120 h,>200 µg/mL
same,Cytopathic effect [CPE] (3days) TCID50,"[3]; 5 μg/ml, HSV-1 (HF), Example 3",5.5
same,Cytopathic effect [CPE] (5days) TCID50,"[3]; 5 μg/ml, HSV-1 (HF), Example 3",5.7
same,Cytopathic effect [CPE] (3days) △TCID50,[3]; [6],0.5
same,Cytopathic effect [CPE] (5days) △TCID50,[3]; [6],0.3
same,Cytopathic effect [CPE] (3days) TCID50,[3]; [7],5.7
same,Cytopathic effect [CPE] (5days) TCID50,[3]; [7],5.7
same,Cytopathic effect [CPE] (3days) △TCID50,[3]; [8],0.3
same,Cytopathic effect [CPE] (5days) △TCID50,[3]; [8],0.3
same,Cytopathic effect [CPE] (3days) TCID50,[3]; [9],5.7
same,Cytopathic effect [CPE] (5days) TCID50,[3]; [9],5.7
same,Cytopathic effect [CPE] (3days) △TCID50,[3]; [10],0.3
same,Cytopathic effect [CPE] (5days) △TCID50,[3]; [10],0.3
same,Cytopathic effect [CPE] (3days) TCID50,[3]; [11],5.7
same,Cytopathic effect [CPE] (5days) TCID50,[3]; [11],5.7
same,Cytopathic effect [CPE] (3days) △TCID50,[3]; [12],0.3
same,Cytopathic effect [CPE] (5days) △TCID50,[3]; [12],0.3
same,Cytopathic effect [CPE] (3days) TCID50,[3]; [13],4.7
same,Cytopathic effect [CPE] (6days) TCID50,[3]; [13],5.0
same,Cytopathic effect [CPE] (3days) ΔTCID50,[3]; [14],1.6
same,Cytopathic effect [CPE] (6days) ΔTCID50,[3]; [14],1.3
same,Cytopathic effect [CPE] (3days) TCID50,[3]; [15],5.3
same,Cytopathic effect [CPE] (5days) TCID50,[3]; [15],5.3
same,Cytopathic effect [CPE] (3days) △TCID50,[3]; [16],0.7
same,Cytopathic effect [CPE] (5days) △TCID50,[3]; [16],0.3
same,Cytopathic effect [CPE] (3days) TCID50,[3]; [17],<3.5
same,Cytopathic effect [CPE] (6days) TCID50,[3]; [17],<3.5
same,Cytopathic effect [CPE] (3days) ΔTCID50,[3]; [18],>2.8
same,Cytopathic effect [CPE] (6days) ΔTCID50,[3]; [18],> 2.8 and >2.5
same,ΔTCID₅₀,"[3]; varying concentrations of from 5 to 100 µg/ml, fifth day of observation, HSV-1 (HF), Example 3",0.3
same,Ratio (%),[4]; 100 μg/ml,absolutely no effect
same,Ratio (%),[4]; 200 μg/ml,absolutely no effect
"Nc1nc2c(ncn2COCCO)c(=O)[nH]1 [ACV, acyclovir, reference compound]",Cytopathic effect [CPE] (3days) Average,"[1]; 100 μg/ml, Example 4",0
same,Cytopathic effect [CPE] (5days) Average,"[1]; 100 μg/ml, Example 4",0
same,Cytopathic effect [CPE] (3days) △CPE,"[1]; 100 μg/ml, Example 4",1.5
same,Cytopathic effect [CPE] (5days) △CPE,"[1]; 100 μg/ml, Example 4",3.05
same,Cytopathic effect [CPE] (3days) Average,"[1]; 100 μg/ml, Example 6",0
same,Cytopathic effect [CPE] (6days) Average,"[1]; 100 μg/ml, Example 6",0
same,Cytopathic effect [CPE] (3days) △CPE,"[1]; 100 μg/ml, Example 6",> 2.5
same,Cytopathic effect [CPE] (6days) △CPE,"[1]; 100 μg/ml, Example 6",3.0
same,affinity for TK(v) as for TK(c),[5],more than 200 times
same,Cytopathic effect [CPE] (3days) TCID50,[3]; [13],5.5
same,Cytopathic effect [CPE] (6days) TCID50,[3]; [13],4.3
same,Cytopathic effect [CPE] (3days) TCID50,[3]; [15],3.5
same,Cytopathic effect [CPE] (5days) TCID50,[3]; [15],3.5
same,log reduction at 100 µg/mL,"[3]; Human alphaherpesvirus 1, 72 h, read-out: Cytopathic effect [CPE] (3days) ΔTCID50",0.8
same,log reduction at 100 µg/mL,"[3]; Human alphaherpesvirus 1, 72 h, 100 μg/ml, HSV-1 (HF), Example 3, difference from control, read-out: Cytopathic effect [CPE] (3days) △TCID50",2.5
same,log reduction at 100 µg/mL,"[3]; Human alphaherpesvirus 1, 120 h, 100 μg/ml, HSV-1 (HF), Example 3, difference from control, read-out: Cytopathic effect [CPE] (5days) △TCID50",2.5
same,log reduction at 100 µg/mL,"[3]; Human alphaherpesvirus 1, 144 h, read-out: Cytopathic effect [CPE] (6days) ΔTCID50",2
